Assay results taken from US4968669A, “Parathyroid hormone antagonists” (Merck & Co., Inc., priority 1989, dated 1990).

How the values were obtained:
[1] = molecular target: T1, I^125 -labeled PTH binding to human osteosarcoma cells (BIO) (Homo sapiens, UniProt Q03431); test: PTH binding assay (human osteosarcoma cells)
T1 construct: endogenous in cells; host or cells: human osteosarcoma cells (BIO)
T1 sequence (Q03431 27-593): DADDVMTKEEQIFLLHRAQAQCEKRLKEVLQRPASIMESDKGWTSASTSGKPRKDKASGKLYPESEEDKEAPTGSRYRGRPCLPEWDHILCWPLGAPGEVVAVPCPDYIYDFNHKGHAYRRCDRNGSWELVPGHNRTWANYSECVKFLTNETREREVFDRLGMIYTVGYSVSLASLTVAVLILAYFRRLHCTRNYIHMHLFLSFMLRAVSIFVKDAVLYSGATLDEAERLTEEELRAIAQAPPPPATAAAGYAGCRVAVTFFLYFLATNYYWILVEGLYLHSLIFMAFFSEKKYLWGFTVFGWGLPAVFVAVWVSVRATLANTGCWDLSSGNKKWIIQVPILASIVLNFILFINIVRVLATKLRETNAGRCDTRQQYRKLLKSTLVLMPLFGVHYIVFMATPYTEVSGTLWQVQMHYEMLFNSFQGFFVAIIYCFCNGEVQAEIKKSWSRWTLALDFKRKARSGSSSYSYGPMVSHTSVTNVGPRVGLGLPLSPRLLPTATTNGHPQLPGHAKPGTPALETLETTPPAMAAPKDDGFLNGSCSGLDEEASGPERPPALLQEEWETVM
From the text: The results are as follows:

[2] = molecular target: T2, I^125 -labeled PTH binding to canine renal cortical membranes (Canis lupus familiaris, UniProt Q9TU31); test: PTH binding assay (canine kidney)
T2 construct: from tissue; host or cells: canine renal cortex, membranes
T2 sequence (Q9TU31 29-595): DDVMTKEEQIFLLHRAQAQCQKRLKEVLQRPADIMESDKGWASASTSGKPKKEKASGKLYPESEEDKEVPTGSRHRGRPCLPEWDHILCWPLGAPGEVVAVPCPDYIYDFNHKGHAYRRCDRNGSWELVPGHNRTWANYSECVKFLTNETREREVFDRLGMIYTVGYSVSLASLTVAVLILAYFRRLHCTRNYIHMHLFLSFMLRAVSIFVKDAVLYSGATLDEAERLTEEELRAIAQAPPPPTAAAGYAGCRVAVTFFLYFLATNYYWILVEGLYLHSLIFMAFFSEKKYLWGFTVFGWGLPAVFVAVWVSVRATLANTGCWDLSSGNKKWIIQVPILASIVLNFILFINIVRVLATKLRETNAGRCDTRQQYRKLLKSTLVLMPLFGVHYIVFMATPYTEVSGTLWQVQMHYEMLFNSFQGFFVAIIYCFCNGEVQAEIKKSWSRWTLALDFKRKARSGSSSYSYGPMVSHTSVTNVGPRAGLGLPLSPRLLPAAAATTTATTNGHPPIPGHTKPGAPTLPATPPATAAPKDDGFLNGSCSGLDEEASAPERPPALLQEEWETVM

[3] = molecular target: T3, PTH receptor in bovine renal cortical plasma membranes (Bos taurus, UniProt Q1LZF7); test: PTH binding assay, bovine renal cortical plasma membranes, radioligand [Nle8,18,125I-Tyr34]bPTH(1-34)NH2; details: 30 min at 21° C
T3 construct: from tissue; host or cells: bovine renal cortex, plasma membranes
T3 sequence (Q1LZF7 29-589): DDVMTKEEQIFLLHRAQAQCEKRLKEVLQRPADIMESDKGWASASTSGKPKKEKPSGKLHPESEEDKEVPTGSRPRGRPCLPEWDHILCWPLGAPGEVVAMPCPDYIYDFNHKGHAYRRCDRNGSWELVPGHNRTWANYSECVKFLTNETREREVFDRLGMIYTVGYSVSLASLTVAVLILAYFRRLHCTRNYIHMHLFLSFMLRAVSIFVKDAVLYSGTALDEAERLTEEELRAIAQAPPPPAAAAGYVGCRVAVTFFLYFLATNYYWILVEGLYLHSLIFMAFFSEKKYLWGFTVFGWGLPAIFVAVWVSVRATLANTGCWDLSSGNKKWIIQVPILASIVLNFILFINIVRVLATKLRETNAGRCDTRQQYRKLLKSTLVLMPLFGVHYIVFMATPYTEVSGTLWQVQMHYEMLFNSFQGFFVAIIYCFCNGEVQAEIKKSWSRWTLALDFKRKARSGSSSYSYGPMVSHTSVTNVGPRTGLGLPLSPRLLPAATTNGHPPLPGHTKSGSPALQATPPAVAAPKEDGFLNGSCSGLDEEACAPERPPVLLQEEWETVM
Procedure: Bovine renal cortical plasma membranes were incubated with radioligand (25,000 cpm) in the absence or presence of PTH analogues in a Tris containing buffer (250 μl) for 30 min. at 21° C. Once equilibrium was reached, bound and free radioligand were separated by centrifugation.

[4] = molecular target: T4, I^125 -labeled PTH binding to rat osteosarcoma cell line ROS 17/2.8 (Rattus norvegicus, UniProt P25961); test: PTH binding assay, ROS 17/2.8 cells
T4 construct: bone-derived rat osteosarcoma cell line ROS 17/2.8; endogenous in cells; host or cells: ROS 17/2.8 rat osteosarcoma cells
T4 sequence (P25961 27-591): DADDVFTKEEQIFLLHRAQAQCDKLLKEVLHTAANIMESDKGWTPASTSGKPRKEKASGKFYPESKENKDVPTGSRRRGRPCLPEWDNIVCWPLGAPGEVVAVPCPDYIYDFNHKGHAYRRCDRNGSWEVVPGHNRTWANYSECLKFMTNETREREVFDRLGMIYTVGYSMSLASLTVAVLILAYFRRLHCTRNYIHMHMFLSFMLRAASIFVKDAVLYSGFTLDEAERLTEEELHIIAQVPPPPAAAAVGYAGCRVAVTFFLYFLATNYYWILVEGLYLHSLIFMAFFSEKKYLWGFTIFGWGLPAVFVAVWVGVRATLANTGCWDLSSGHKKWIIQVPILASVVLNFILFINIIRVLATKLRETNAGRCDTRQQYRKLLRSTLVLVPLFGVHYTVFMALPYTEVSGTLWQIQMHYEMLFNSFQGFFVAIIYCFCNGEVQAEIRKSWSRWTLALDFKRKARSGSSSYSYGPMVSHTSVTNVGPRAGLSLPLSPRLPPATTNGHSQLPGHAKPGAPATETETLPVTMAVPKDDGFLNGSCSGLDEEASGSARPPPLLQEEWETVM

Row | Structure (SMILES) | Ki [1] [nM] | Ki [2] [nM] | Ki [3] [nM] | Ki [4] [nM]
1 | CSCC[C@H](NC(=O)[C@H](CO)NC(=O)[C@H](CO)NC(=O)[C@H](CC(C)C)NC(=O)[C@H](Cc1c[nH]cn1)NC(=O)[C@H](CCCCN)NC(=O)CNC(=O)[C@H](CC(C)C)NC(=O)[C@H](CC(N)=O)NC(=O)[C@H](Cc1c[nH]cn1)NC(=O)[C@H](CCSC)NC(=O)[C@@H](N)Cc1ccccc1)C(=O)N[C@@H](CCC(=O)O)C(=O)N[C@@H](CCCNC(=N)N)C(=O)N[C@H](C(=O)N[C@@H](CCC(=O)O)C(=O)N[C@@H](Cc1c[nH]c2ccccc12)C(=O)N[C@@H](CC(C)C)C(=O)N[C@@H](CCCNC(=N)N)C(=O)N[C@@H](CCCCN)C(=O)N[C@@H](CCCCN)C(=O)N[C@@H](CC(C)C)C(=O)N[C@@H](CCC(N)=O)C(=O)N[C@@H](CC(=O)O)C(=O)N[C@H](C(=O)N[C@@H](Cc1c[nH]cn1)C(=O)N[C@@H](CC(N)=O)C(=O)N[C@@H](Cc1ccc(O)cc1)C(N)=O)C(C)C)C(C)C [[Tyr^34]bPTH(7-34)NH2] | 5.5 ± 1.6 | 45.8 ± 11.3 | 76 ± 9 | 700 ± 90
2 | CCCC[C@H](NC(=O)[C@H](CO)NC(=O)[C@H](CO)NC(=O)[C@H](CC(C)C)NC(=O)[C@H](Cc1c[nH]cn1)NC(=O)[C@H](CCCCN)NC(=O)CNC(=O)[C@H](CC(C)C)NC(=O)[C@H](CC(N)=O)NC(=O)[C@H](Cc1c[nH]cn1)NC(=O)[C@H](CCCC)NC(=O)[C@@H](N)Cc1ccccc1)C(=O)N[C@@H](CCC(=O)O)C(=O)N[C@@H](CCCNC(=N)N)C(=O)N[C@H](C(=O)N[C@@H](CCC(=O)O)C(=O)N[C@@H](Cc1c[nH]c2ccccc12)C(=O)N[C@@H](CC(C)C)C(=O)N[C@@H](CCCNC(=N)N)C(=O)N[C@@H](CCCCN)C(=O)N[C@@H](CCCCN)C(=O)N[C@@H](CC(C)C)C(=O)N[C@@H](CCC(N)=O)C(=O)N[C@@H](CC(=O)O)C(=O)N[C@H](C(=O)N[C@@H](Cc1c[nH]cn1)C(=O)N[C@@H](CC(N)=O)C(=O)N[C@@H](Cc1ccc(O)cc1)C(N)=O)C(C)C)C(C)C [[Nle^8,18,Tyr^34]bPTH(7-34)NH2] | – | – | 145 ± 13 | 964 ± 170
